Test results reported in patent US11986478B2 (priority 2021, dated 2024).

Tests used:
SARS2-PLpro K157A mutant = SARS2-PLpro K157A mutant (Severe acute respiratory syndrome coronavirus 2, UniProt P0DTD1, K1720A); type: biochemical, SARS-CoV-2
[1] = test system: SARS-CoV-2 variants of concern B.1.1.7 (Alpha), B.1.351 (Beta) and B.1.617.2 (Delta); test: microbe, parasite or virus in culture; type: cell-based; conditions: Severe acute respiratory syndrome coronavirus 2, VeroE6/TMPRSS2, read-out: EC50 against SARS-CoV-2 variants of concern

O=C(Nc1ccccc1Cl)c1sc(=S)n2c1[nH]c(=O)c1ccccc12 [Compound F0213]
effect of K157A substitution on inhibitory potency (SARS2-PLpro K157A mutant): significantly diminished the inhibitory potency
EC50 [1]: 2.2 to 4.8 µM
